US7517874B2 (priority 2007, dated 2009)
pEC50: −log10 of the molar value. Read-outs that look alike come from different tables or passages of the source.

Tests used:
rat CB2 receptor (rCB2) = target: T1, rat CB2 receptor (rCB2) (Rattus norvegicus, UniProt Q9QZN9); assay: cell-based; assay type: cell-based; conditions: for +/− RCB2: agonist or inverse agonist at rCB2
T1 sequence (Q9QZN9 1-360): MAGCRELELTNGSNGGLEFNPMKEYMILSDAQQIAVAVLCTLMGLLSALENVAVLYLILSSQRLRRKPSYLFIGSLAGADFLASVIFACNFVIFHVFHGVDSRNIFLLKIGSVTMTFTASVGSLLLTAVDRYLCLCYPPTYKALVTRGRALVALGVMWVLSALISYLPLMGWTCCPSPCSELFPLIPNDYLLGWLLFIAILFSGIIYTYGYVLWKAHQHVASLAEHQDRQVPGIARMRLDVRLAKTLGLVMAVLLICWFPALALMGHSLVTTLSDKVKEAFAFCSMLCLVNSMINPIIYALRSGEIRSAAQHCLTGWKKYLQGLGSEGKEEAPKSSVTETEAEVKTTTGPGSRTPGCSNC
Procedure, shortened: (§1)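 First, cells in IBMX-containing HEPES-buffered HBSS are raised to elevated cAMP with 2-8 μM NKH-477 for 30 min. Data are normalised to the forskolin and forskolin + 1 μM CP55,940 controls.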

[1] = target: human CB1 receptor (hCB1) (Homo sapiens, UniProt P21554); assay: cell-based; assay type: cell-based; conditions: for +/− HCB1: agonist or inverse agonist at hCB1
human CB1 receptor (hCB1), sequence (P21554 whole entry): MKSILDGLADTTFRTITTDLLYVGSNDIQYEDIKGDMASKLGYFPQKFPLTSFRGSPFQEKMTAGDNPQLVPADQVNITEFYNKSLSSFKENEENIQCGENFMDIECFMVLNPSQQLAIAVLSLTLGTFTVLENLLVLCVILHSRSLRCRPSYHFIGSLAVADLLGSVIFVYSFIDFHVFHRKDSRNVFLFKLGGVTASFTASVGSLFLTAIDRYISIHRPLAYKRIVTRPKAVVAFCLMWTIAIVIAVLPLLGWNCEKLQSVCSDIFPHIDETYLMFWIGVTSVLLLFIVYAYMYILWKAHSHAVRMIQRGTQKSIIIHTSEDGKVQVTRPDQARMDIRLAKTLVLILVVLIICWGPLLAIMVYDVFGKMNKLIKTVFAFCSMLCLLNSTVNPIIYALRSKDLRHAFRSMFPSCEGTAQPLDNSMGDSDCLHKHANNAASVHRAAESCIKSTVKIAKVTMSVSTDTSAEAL
Procedure, shortened: as §1

Structure (SMILES)	+/− RCB2 (rat CB2 receptor (rCB2))	pEC50 [1]	pEC50 (rat CB2 receptor (rCB2))	+/− HCB1 [1]	EC50 ([1]; groups >100 nM-10 μM and >10 μM, cAMP, CHO-K1 hCB1, read-out: EC50 HCB1)
CNC(=O)[C@@H](NC(=O)c1nc(-c2ccc(Cl)c(F)c2)n2c1CN(C)CCC2)C(C)(C)C [Compound 373]	+	< 5.00			
Cc1ccc(-c2nc(C(=O)N[C@H](c3nc(C)no3)C(C)(C)C)c3n2CCCN(C(=O)OC(C)(C)C)C3)c(F)c1 [Compound 518, (S)-tert-butyl 1-(2,2-dimethyl-1-(3-methyl-1,2,4-oxadiazol-5-yl)propylcarbamoyl)-3-(2-fluoro-4-methylphenyl)-6,7-dihydro-5H-imidazo[1,5-a][1,4]diazepine-8(9H)-carboxylate]	−	< 5.00			
CNC(=O)[C@@H](NC(=O)c1nc(CCCC2CCCC2)n2c1CN(C)CCC2)C(C)(C)C [Compound 494, (S)-3-(3-cyclopentylpropyl)-N-(3,3-dimethyl-1-(methylamino)-1-oxobutan-2-yl)-8-methyl-6,7,8,9-tetrahydro-5H-imidazo[1,5-a][1,4]diazepine-1-carboxamide]	−	< 5.00			
CC(C)C[C@H](NC(=O)c1nc(-c2cc(F)ccc2F)n2c1CN(C)CCC2)C(N)=O [Compound 567, (S)-N-(1-amino-4-methyl-1-oxopentan-2-yl)-3-(2,5-difluorophenyl)-8-methyl-6,7,8,9-tetrahydro-5H-imidazo[1,5-a][1,4]diazepine-1-carboxamide]	+	< 5.00			
CNC(=O)[C@@H](NC(=O)c1nc(-c2ccc(F)c(C)c2)n2c1CN(C)CCC2)C(C)(C)C [Compound 347, (S)-N-(3,3-dimethyl-1-(methylamino)-1-oxobutan-2-yl)-3-(4-fluoro-3-methylphenyl)-8-methyl-6,7,8,9-tetrahydro-5H-imidazo[1,5-a][1,4]diazepine-1-carboxamide]		< 5.00	< 5.00		
CNC(=O)[C@@H](NC(=O)c1nc(-c2c(F)cccc2OC)n2c1CN(C)CCC2)C(C)(C)C [Compound 365, N-((S)-3,3-dimethyl-1-(methylamino)-1-oxobutan-2-yl)-3-(2-fluoro-6-methoxyphenyl)-8-methyl-6,7,8,9-tetrahydro-5H-imidazo[1,5-a][1,4]diazepine-1-carboxamide]	+	< 5.00			
CNC(=O)[C@@H](NC(=O)c1nc(-c2csc3ccccc23)n2c1CN(C)CCC2)C(C)(C)C [Compound 354, (S)-3-(benzo[b]thiophen-3-yl)-N-(3,3-dimethyl-1-(methylamino)-1-oxobutan-2-yl)-8-methyl-6,7,8,9-tetrahydro-5H-imidazo[1,5-a][1,4]diazepine-1-carboxamide]	−	< 5.00			
CNC(=O)[C@@H](NC(=O)c1nc(-c2cccc(NS(C)(=O)=O)c2)n2c1CN(C)CCC2)C(C)(C)C [Compound 421, (S)-N-(3,3-dimethyl-1-(methylamino)-1-oxobutan-2-yl)-8-methyl-3-(3-(methylsulfonamido)phenyl)-6,7,8,9-tetrahydro-5H-imidazo[1,5-a][1,4]diazepine-1-carboxamide]	−	< 5.00			
CC(C)C[C@H](NC(=O)c1nc(-c2cc(Cl)c(F)cc2F)n2c1CN(C)CCC2)C(N)=O [Compound 571, (S)-N-(1-amino-4-methyl-1-oxopentan-2-yl)-3-(5-chloro-2,4-difluorophenyl)-8-methyl-6,7,8,9-tetrahydro-5H-imidazo[1,5-a][1,4]diazepine-1-carboxamide]	+			+	
CNC(=O)[C@@H](NC(=O)c1nc(-c2ccc(C(F)(F)F)cc2)n2c1CNCC2)C(C)(C)C [Compound 5, (S)-N-(3,3-dimethyl-1-(methylamino)-1-oxobutan-2-yl)-3-(4-(trifluoromethyl)phenyl)-5,6,7,8-tetrahydroimidazo[1,5-a]pyrazine-1-carboxamide]	−	< 5.00			
CNC(=O)[C@@H](NC(=O)c1nc(-c2cc(F)ccc2F)n2c1CN(C)CC2)C(C)(C)C [Compound 250, (S)-3-(2,5-difluorophenyl)-N-(3,3-dimethyl-1-(methylamino)-1-oxobutan-2-yl)-7-methyl-5,6,7,8-tetrahydroimidazo[1,5-a]pyrazine-1-carboxamide]		< 5.00	< 5.00		
CNC(=O)[C@@H](NC(=O)c1nc(-c2ccc(OC)c(F)c2)n2c1CN(C)CCC2)C(C)(C)C [Compound 404, (S)-N-(3,3-dimethyl-1-(methylamino)-1-oxobutan-2-yl)-3-(3-fluoro-4-methoxyphenyl)-8-methyl-6,7,8,9-tetrahydro-5H-imidazo[1,5-a][1,4]diazepine-1-carboxamide]		< 5.00	< 5.00		
CNC(=O)[C@@H](NC(=O)c1nc(-c2ccc(F)cc2)n2c1CNCC2)C(C)(C)C [Compound 6, (S)-N-(3,3-dimethyl-1-(methylamino)-1-oxobutan-2-yl)-3-(4-fluorophenyl)-5,6,7,8-tetrahydroimidazo[1,5-a]pyrazine-1-carboxamide]		< 5.00	< 5.00		
CN1CCCn2c(-c3cc(Cl)ccc3F)nc(C(=O)N[C@H](C(N)=O)C(C)(C)C)c2C1 [Compound 574, (S)-N-(1-amino-3,3-dimethyl-1-oxobutan-2-yl)-3-(5-chloro-2-fluorophenyl)-8-methyl-6,7,8,9-tetrahydro-5H-imidazo[1,5-a][1,4]diazepine-1-carboxamide]	+			+	
CC(C)CNC(=O)[C@@H](NC(=O)c1nc(-c2ccccc2)n2c1CN(C)CCC2)C(C)(C)C [Compound 474, (S)-N-(1-(isobutylamino)-3,3-dimethyl-1-oxobutan-2-yl)-8-methyl-3-phenyl-6,7,8,9-tetrahydro-5H-imidazo[1,5-a][1,4]diazepine-1-carboxamide]	+	< 5.00			
CNC(=O)[C@@H](NC(=O)c1nc(-c2ccccc2)n2c1CN(Cc1ccccc1)CC2)C(C)(C)C [Compound 61, (S)-7-benzyl-N-(3,3-dimethyl-1-(methylamino)-1-oxobutan-2-yl)-3-phenyl-5,6,7,8-tetrahydroimidazo[1,5-a]pyrazine-1-carboxamide]		< 5.00	< 5.00		
O=C(NCC1CCOCC1)c1nc(-c2ccccc2)n2c1CN(CCO)CC2 [Compound 169, 7-(2-hydroxyethyl)-3-phenyl-N-((tetrahydro-2H-pyran-4-yl)methyl)-5,6,7,8-tetrahydroimidazo[1,5-a]pyrazine-1-carboxamide]	−				> 10000 nM
CNC(=O)[C@H](CC(C)C)NC(=O)c1nc(-c2cc(Cl)c(F)cc2F)n2c1CN(C)CCC2 [Compound 539, (S)-3-(5-chloro-2,4-difluorophenyl)-8-methyl-N-(4-methyl-1-(methylamino)-1-oxopentan-2-yl)-6,7,8,9-tetrahydro-5H-imidazo[1,5-a][1,4]diazepine-1-carboxamide]	+			+	
CNC(=O)[C@@H](NC(=O)c1nc(-c2ccc(F)cc2)n2c1CN(C)CCC2)C(C)(C)C [Compound 437, (S)-N-(3,3-dimethyl-1-(methylamino)-1-oxobutan-2-yl)-3-(4-fluorophenyl)-8-methyl-6,7,8,9-tetrahydro-5H-imidazo[1,5-a][1,4]diazepine-1-carboxamide]		< 5.00	< 5.00		
